Assays:
Assay in all cases: fluorescent GTP concentration effect on GTPase potency – biochemical, four GTPases, bead flow cytometry, mechanism study, profiling panel (AID 743330)
Details in all cases: bead-based flow cytometry, fluorescent GTP binding to GTPases
Cdc42 mutant = biological target: Cdc42 mutant
Rab7 = biological target: Rab7
Ras = biological target: Ras
Cdc42 = biological target: Cdc42

EC50 (Cdc42 mutant; EC50 at 25 nM fluorescent GTP)	EC50 (Cdc42 mutant; EC50 at 100 nM fluorescent GTP)	EC50 (Rab7; EC50 at 25 nM fluorescent GTP)	EC50 (Rab7; EC50 at 100 nM fluorescent GTP)	EC50 (Ras; EC50 at 25 nM fluorescent GTP)	EC50 (Ras; EC50 at 100 nM fluorescent GTP)	EC50 (Cdc42; EC50 at 100 nM fluorescent GTP)	EC50 (Cdc42; EC50 at 25 nM fluorescent GTP)	SMILES
12 nM	27 nM	8 nM	29 nM	6 nM	23 nM	20 nM	–	CCC1(C)Cc2c(sc(NC(=S)NC(=O)c3ccccc3)c2C(=O)O)CO1 (stereo not given)
120 nM	977 nM	55 nM	479 nM	66 nM	444 nM	1040 nM	248 nM	CC1(C)Cc2c(sc(NC(=S)NC(=O)c3ccc(F)cc3)c2C(=O)O)CO1

Reference: PubChem BioAssay AID743330 (NMMLSC, 2014)
